Test results reported in patent publication US20140079836A1, “METHODS AND COMPOSITIONS FOR ALTERING HEALTH, WELLBEING, AND LIFESPAN” (LifeSpan Extension, LLC, priority 2008, published 2014).
Where “and” joins values, the source holds several entries; their conditions need not be identical. Equal values may be shown once.

Test system: genes involved in longevity (Array 1)
Assay: Custom RT-PCR microarray (Array 1) gene expression in skin fibroblasts, UVB/UVA1
Type: cell-based, human
Protocol: Seeding of cells: On Day 1, each cell culture was seeded into 6 well cluster dishes at ˜1.5×10^5 cells in 4 mls medium per well. Three wells were seeded per test condition or control.
Experimental phase: On Day 3, wells were washed 1× with 2 mls medium, fed back 2 mls medium without fetal bovine serum and preincubated for 30-60 minutes before challenge with test or control conditions. After the preincubation, medium was aspirated from the wells and 2.5 mls of test or control condition in medium with 1% fetal bovine serum was pipetted into the appropriate wells.
(3) UVA1, UVB exposed and unexposed cells without test condition were used as controls. The experimental phase ended at 24 hours post UV exposure. Cells from each test and control parameter were then prepped for RNA isolation as described below.
UVB/UVA1 exposure: Cells exposed to UV received 200 mJ/cm^2 UVB/1 MED UVA1 using Thermo Oriel solar simulator model SP66923-3056. Cells were exposed from the bottom of the culture dish. The UV dose delivered to the cells was adjusted for interference from the plastic in the culture dish.
Preparation of RNA: The RNA was isolated using the Qiagen RNEasy Plus Mini Kit according to the manufacturer's protocol which can be found on the World Wilde Web at qiagen.com/literature/Defaultaspx?Term=&Language=EN&LiteratureType=4& ProductCategory=10162. The RNA was quantified and examined for purity using the 260/280 nm read method in a μ Quant spectrophotometer before use in the array.
Creation and Performance of a Custom Microarray (“Array 1”): Through the Custom Array design service of Superarray Bioscience Corporation, a 96 well RT-PCR microarray (“Array 1”) was developed to illustrate genetic responses in cells treated as above for specific genes involved in longevity as well as the relevant quality controls. The array was performed in compliance with manufacturer's guidelines and by recommended manufacturer's protocol as can be found on the World Wilde Web at superarray.com/Manual/perarrayplate.pdf
(§1) Custom Microarray Results: The results from the microarrays were determined using the delta CT method which uses comparisons of control genes and threshold cycles of genes of interest to generate relative expression values. The full set of experimental conditions was cross referenced and the data is provided herewith in DATA TABLE 3.
Preparation of RNA: The RNA was isolated using the Qiagen RNEasy Plus Mini Kit according to the manufacturer's protocol which can be found on the World Wide Web at qiagen.com/literature/Default. aspx?Term=&Language=EN&LiteratureType=4&ProductCategory=10162.
The RNA was quantified and examined for purity using the 260/280 nm read method in a μ Quant spectrophotometer before use in the array.
Creation and Performance of the Custom Microarray: Through the Custom Array design service of Superarray Bioscience Corporation, a 96 well RT-PCR Microarray was developed to illustrate genetic responses in cells treated as above for specific genes involved in longevity as well as the relevant quality controls. The array was performed in compliance with manufacturer's guidelines and by recommended manufacturer's protocol as can be found on the World Wide Web at superarray.com/Manual/perarrayplate.pdf.
as §1, with “4.” for “3.”
as §1, with “5. […]” for “3.”

[1] = donor four cell line, UVB, agent 4 hr incubation
[2] = donor four cell line, UVB, agent continuous incubation
[3] = donor three idebenone + UVB 4 hr Incubation
[4] = donor three idebenone + UVB Continuous Incubation
[5] = donor three idebenone + UVB vs. Green tea + UVB 4 hr Incubation
[6] = donor three vs. donor two idebenone + UVB 4 hr Incubation
[7] = donor three vs. donor two idebenone + UVB Continuous Incubation

## COC1=C(OC)C(=O)C(CCCCCCCCCCO)=C(C)C1=O [Idebenone, 6-(10-hydroxydecyl)-2,3-dimethoxy-5-methyl-1,4-benzoquin-one]
[1]
  IFI44 expression: 2.63
  NADSYN1 expression: 2.21
  NFKB1 expression: 3.24
  PARP1 Expression: 4.27
  TERT expression: 8.54
[2]
  IFI44 expression: 2.98
  TERT expression: 4.36
Donor one cell line, UVB, agent continuous incubation
  TERT expression: 8.50
[3]
  ACE expression fold change: 2.29
  ACTB expression fold change: −2.01
  APOE expression fold change: −1.32
  BAX expression fold change: 1.41
  BCL2 expression fold change: 4.13
  CASP2 expression fold change: 1.31
  CASP9 expression fold change: 2.06
  CCL4L1 expression fold change: 9.82
  CLK1 expression fold change: 1.41
  COX1 expression fold change: −1.11
  CREBBP expression fold change: −1.32
  CYP19A1 expression fold change: 6.94
  DDC expression fold change: 4.74
  GAPDH expression fold change: −1.04
  GH1 expression fold change: 3.35
  HIGX1A fold change: 1.93
  HLA-DRA expression fold change: 4.27
  HPRT1 expression fold change: 3.47
  HSPA1A expression fold change: 1.68
  HSPA1B expression fold change: 1.99
  HSPA1L expression fold change: −1.42
  IFI44 expression fold change: 2.63
  IGF1 expression fold change: 4.13
  IGF2 expression fold change: −1.24
  IL1A expression fold change: 2.54
  IL6 expression fold change: 1.27
  IL10 expression fold change: 1.46
  KRAS expression fold change: 1.27
  MAPK14 expression fold change: 1.46
  NADSYN1 expression fold change: 2.21
  NFKB1 expression fold change: 3.24
  NOS2A expression fold change: 16.51
  PARP1 expression fold change: 4.27
  PARP2 expression fold change: 3.72
  PPARG expression fold change: 1.99
  PPC fold change: 1.07 and 1.23
  PTGS2 expression fold change: 2.63
  RTC fold change: 3.13 and 4.74
  SHC1 expression fold change: 1.19
  SIRT1 expression fold change: 1.41
  SOD1 expression fold change: 1.41
  SOD2 expression fold change: 1.07
  TEP1 expression fold change: 1.23
  TERT expression fold change: 8.54
  TNF expression fold change: −1.19
  TP53 expression fold change: −1.15
[4]
  ACE expression fold change: 2.34
  ACTB expression fold change: −3.93
  APOE expression fold change: 1.49
  BAX expression fold change: 2.26
  BCL2 expression fold change: 7.09
  CASP2 expression fold change: 1.09
  CASP9 expression fold change: 5.19
  CCL4L1 expression fold change: 10.02
  CLK1 expression fold change: 1.71
  COX1 expression fold change: 1.05
  CREBBP expression fold change: −1.21
  CYP19A1 expression fold change: 5.56
  DDC expression fold change: 4.84
  GAPDH expression fold change: −1.83
  GH1 expression fold change: 2.18
  HIGX1A fold change: 1.71
  HLA-DRA expression fold change: 3.93
  HPRT1 expression fold change: 1.83
  HSPA1A expression fold change: 1.34
  HSPA1B expression fold change: 1.71
  HSPA1L expression fold change: −5.37
  IFI44 expression fold change: 2.98
  IGF1 expression fold change: 3.42
  IGF2 expression fold change: −1.09
  IL1A expression fold change: 1.97
  IL6 expression fold change: −1.83
  IL10 expression fold change: 1.13
  KRAS expression fold change: 1.90
  MAPK14 expression fold change: 1.65
  NADSYN1 expression fold change: 1.44
  NFKB1 expression fold change: 2.34
  NOS2A expression fold change: 3.80
  PARP1 expression fold change: 1.65
  PARP2 expression fold change: 3.42
  PPARG expression fold change: 3.19
  PPC fold change: 1.25 and 1.21
  PTGS2 expression fold change: 1.83
  SHC1 expression fold change: −1.49
  SIRT1 expression fold change: 1.77
  SOD1 expression fold change: −1.71
  SOD2 expression fold change: 1.17
  TEP1 expression fold change: 1.13
  TERT expression fold change: 4.36
  TNF expression fold change: −1.09
  TP53 expression fold change: 1.21
[5]
  ACE expression fold change: −1.11
  ACTB expression fold change: −1.57
  APOE expression fold change: 1.41
  BAX expression fold change: −2.23
  BCL2 expression fold change: −1.15
  CASP2 expression fold change: −2.47
  CASP9 expression fold change: −1.94
  CCL4L1 expression fold change: 9.48
  CLK1 expression fold change: −1.11
  COX1 expression fold change: −1.81
  CREBBP expression fold change: −1.00
  CYP19A1 expression fold change: 9.48
  DDC expression fold change: 42.08
  GAPDH expression fold change: −1.57
  GH1 expression fold change: 16.51
  HIGX1A fold change: 17.09
  HLA-DRA expression fold change: 18.96
  HPRT1 expression fold change: 1.41
  HSPA1A expression fold change: −1.87
  HSPA1B expression fold change: −2.08
  HSPA1L expression fold change: 1.80
  IFI44 expression fold change: −1.28
  IGF1 expression fold change: 8.85
  IGF2 expression fold change: −1.15
  IL1A expression fold change: 7.70
  IL6 expression fold change: −1.04
  IL10 expression fold change: 4.74
  KRAS expression fold change: −1.69
  MAPK14 expression fold change: −1.63
  NADSYN1 expression fold change: −1.63
  NFKB1 expression fold change: −1.04
  NOS2A expression fold change: 34.18
  PARP1 expression fold change: −1.57
  PARP2 expression fold change: 7.44
  PPARG expression fold change: 1.74
  PTGS2 expression fold change: 2.14
  SHC1 expression fold change: −1.11
  SIRT1 expression fold change: −1.15
  SOD1 expression fold change: −1.32
  SOD2 expression fold change: −1.24
  TEP1 expression fold change: −1.00
  TERT expression fold change: 7.97
  TNF expression fold change: 7.44
  TP53 expression fold change: −1.32
[6]
  ACE expression fold change: 1.16
  ACTB expression fold change: 1.43
  APOE expression fold change: −1.06
  BAX expression fold change: 1.95
  BCL2 expression fold change: 1.76
  CASP2 expression fold change: 1.33
  CASP9 expression fold change: 1.58
  CCL4L1 expression fold change: 1.08
  CLK1 expression fold change: −1.22
  COX1 expression fold change: 1.12
  CREBBP expression fold change: 1.70
  CYP19A1 expression fold change: 1.01
  DDC expression fold change: 1.08
  GAPDH expression fold change: 1.16
  GH1 expression fold change: −1.06
  HIGX1A fold change: −1.50
  HLA-DRA expression fold change: 1.38
  HPRT1 expression fold change: 1.38
  HSPA1A expression fold change: 2.16
  HSPA1B expression fold change: 2.32
  HSPA1L expression fold change: −1.14
  IFI44 expression fold change: 1.53
  IGF1 expression fold change: −1.79
  IGF2 expression fold change: −1.03
  IL1A expression fold change: −1.40
  IL6 expression fold change: −6.01
  IL10 expression fold change: 1.76
  KRAS expression fold change: 1.76
  MAPK14 expression fold change: 1.48
  NADSYN1 expression fold change: 1.08
  NFKB1 expression fold change: 1.01
  NOS2A expression fold change: −1.56
  PARP1 expression fold change: 2.32
  PARP2 expression fold change: 1.16
  PPARG expression fold change: 1.29
  PTGS2 expression fold change: 2.95
  SHC1 expression fold change: 1.20
  SIRT1 expression fold change: 1.53
  SOD1 expression fold change: 1.24
  SOD2 expression fold change: −1.35
  TEP1 expression fold change: 1.76
  TERT expression fold change: −1.14
  TNF expression fold change: 1.95
  TP53 expression fold change: −1.31
[7]
  ACE expression fold change: 1.40
  ACTB expression fold change: 4.88
  APOE expression fold change: −2.48
  BAX expression fold change: −1.64
  BCL2 expression fold change: −1.53
  CASP2 expression fold change: −1.38
  CASP9 expression fold change: −1.88
  CCL4L1 expression fold change: −2.09
  CLK1 expression fold change: −1.04
  COX1 expression fold change: −2.32
  CREBBP expression fold change: 1.14
  CYP19A1 expression fold change: −2.48
  DDC expression fold change: −1.58
  GAPDH expression fold change: 2.13
  GH1 expression fold change: 1.40
  HIGX1A fold change: −2.16
  HLA-DRA expression fold change: 1.31
  HPRT1 expression fold change: 2.20
